Earlier results in PMC3902791 (Molecular imaging and biology : MIB : the official …, 2012).
Like-named read-outs stand apart in the source and are kept apart here.

Assays:
dog = conditions: cited from earlier work
monkey = conditions: intravenous injection; cited from earlier work
[1] = humans; cited from earlier work

| SMILES | LD50 (dog; intravenously) [mg/kg] | LD50 (dog; orally) [mg/kg] | LD50 (monkey) [mg/kg] | effective dose [1] [mSv/MBq] | radiation absorbed dose, intestines [1] | radiation absorbed dose, kidneys [1] [mGy/MBq] | radiation absorbed dose, liver [1] [mGy/MBq] | radiation absorbed dose, pancreas [1] [mGy/MBq] | radiation absorbed dose, urinary bladder [1] [mGy/MBq] |
| --- | --- | --- | --- | --- | --- | --- | --- | --- | --- |
| O=C([O-])CF.[Na+] [sodium fluoroacetate] | 0.06 | 0.066 | 5 | – | – | – | – | – | – |
| C[11C](=O)O [^11C-ACE, ^11C-labeled acetate] | – | – | – | 0.0049 | 0.01–0.011 mGy/MBq | 0.0093 | 0.006 | 0.017 | 0.0028 |
